What all share (test): NCI-60 cell line screen, 48 h
Experiment [1] concerns MDA-N.
Experiment [2] has as its system M14 melanoma.
Experiment [3] has as its system NCI/ADR-RES ovarian.
Experiment [4] has as its system SF-268 CNS.
For experiment [5], the system named is MDA-MB-435.
Experiment [6] concerns HS 578T breast.
The subject of experiment [7] is 786-0 renal.
For experiment [8], the system named is HCT-15 colon.
Experiment [9] concerns A498 renal.
The test system of experiment [10] is NCI-H23 lung.
Experiment [11] relates to HCT-116 colon.
Experiment [12] deals with ACHN renal.

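All cell lines were grown in 96-well plates and treated with compound for 48 hours. TGI: concentration producing complete growth inhibition.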 Some results are limits rather than exact numbers.

Regarding `O=C(c1ccccc1)c1ccc2c(c1)NC(=O)c1ccccc1SSc1ccccc1C(=O)N2`, the TGI in [1], in experiment [2], in [3], in experiment [4], in [5] and in [6] was over 100 µM each time. For the same compound, the TGI in experiment [7], in [8], in experiment [9], in experiment [10], in [11] and in experiment [12] was over 100 µM each time.

As for `C=C(C)CNCCN`, the TGI in experiment [1], in experiment [2], in experiment [3], in experiment [4], in experiment [5] and in experiment [6] was over 100 µM in each case. The TGI in experiment [7], in experiment [8], in experiment [9], in experiment [10], in [11] and in experiment [12] was over 100 µM each time.

Take `OCCCc1ccc2c(c1)[C@H](CO)[C@@H](c1ccc(O)cc1)O2`: the TGI in experiment [1] is over 100 µM; in experiment [2], over 100 µM; in experiment [3], over 100 µM; in experiment [4] it was over 100 µM; in experiment [5], over 100 µM; in experiment [6], 38.6 µM. Also, the TGI in experiment [7], in [8], in experiment [9], in [10], in [11] and in [12] was over 100 µM throughout.

With `CCN(C(=O)N[C@@H](C)C(=O)N[C@@H](Cc1ccccc1)C(=O)OC)c1ccccc1`, the TGI in experiment [1], in experiment [2], in experiment [3], in experiment [4], in experiment [5] and in experiment [6] was over 100 µM in each case. The TGI in experiment [7], in experiment [8], in experiment [9], in experiment [10], in [11] and in experiment [12] was over 100 µM each time.

`O=c1c2c(no[n+]2[O-])c2ccccc2n1-c1ccccc1`: the TGI in [1] came out at 9.56 µM; in experiment [2], 8.25 µM; in experiment [3], 21.6 µM; in experiment [4], 20.1 µM; in experiment [5], 14.6 µM; in experiment [6], 39.1 µM. Further, the TGI in experiment [7] is 9.97 µM; in [8], 8.76 µM; in experiment [9] it was 22.2 µM; in [10] it was 5.53 µM; in experiment [11], 6.73 µM; in experiment [12], 42.7 µM.

For the compound `CC(C)(C)c1ccc2c(c1)C#Cc1cc3c(cc1OCCCO2)C#Cc1cc(C(C)(C)C)ccc1OCCCO3`, the TGI in [1] was over 100 µM; in experiment [2] it was over 100 µM; in experiment [3], 29.5 µM; in experiment [4], over 100 µM; in [5], over 100 µM; in experiment [6] it was over 100 µM. The TGI was over 100 µM in [7]; 5.92 µM in experiment [8]; over 100 µM in experiment [9]; 4.54 µM in experiment [10]; over 100 µM in [11]; over 100 µM in [12].

For the compound `Cn1c2ccccc2c2c(=S)c3ccccc3ccc21`, the TGI in experiment [1], in experiment [2], in [3], in experiment [4], in [5] and in [6] was over 100 µM each time. Besides, the TGI in experiment [7], in experiment [8], in [9], in experiment [10], in [11] and in experiment [12] was over 100 µM in each case.

For the compound `O=C1CSC2(CC(/C=C/c3cccs3)=NN2c2cccc(S(=O)(=O)O)c2)N1c1nc2ccccc2s1` (stereo not given), the TGI in experiment [1], in experiment [2], in experiment [3], in experiment [4], in [5] and in [6] was over 100 µM in each case. Also, the TGI in experiment [7] was over 100 µM; in [8], over 100 µM; in experiment [9], 92.7 µM; in experiment [10], over 100 µM; in experiment [11], over 100 µM; in experiment [12] it was over 100 µM.

On to `c1ccc(C2=NOC(c3ccccc3)N2C23CC4CC(CC(C4)C2)C3)cc1` (stereo not given), for which the TGI in [1], in experiment [2], in [3], in [4], in experiment [5] and in [6] was over 10 µM each time. Besides, the TGI in [7], in experiment [8], in [9], in [10], in [11] and in [12] was over 10 µM in each case.

As for `N#Cc1sc2c(c1OC(=O)c1ccc(C(F)(F)F)cc1)c(=O)n(-c1ccccc1)c(=S)n2-c1ccccc1`, the TGI was over 100 µM in experiment [1]; 81.7 µM in experiment [2]; over 100 µM in experiment [3]; over 100 µM in experiment [4]; 94.3 µM in [5]; 91.7 µM in experiment [6]. Besides, the TGI in experiment [7] was over 100 µM; in experiment [8], 80.7 µM; in experiment [9] it was 90.2 µM; in experiment [10], over 100 µM; in experiment [11], 74.6 µM; in experiment [12], 93.5 µM.
